According to patent US9586961B2, “Homopiperazine derivatives as protein tyrosine kinase inhibitors and pharmaceutical use thereof” (LEO PHARMA A/S, priority 2010, dated 2017):

How the values were obtained:
Assay type in all cases: biochemical
[1] = target: T1, JAK1 (Homo sapiens, UniProt P23458); test: JAK1 kinase assay (HTRF, inhibition of phosphorylation of a synthetic peptide); conditions: catalytic domain aa 850-1154, GST-tag; 7 μM ATP (Km); read-out: JAK1 kinase inhibitory activity (EC50)
T1 construct: JAK1 (aa 850-1154) and TYK2 (aa 871-1187) are expressed with an N-terminally fused GST-tag; GST (N); purchased Carna Biosciences, Inc; host or cells: baculovirus expression system
T1 sequence (P23458 850-1154): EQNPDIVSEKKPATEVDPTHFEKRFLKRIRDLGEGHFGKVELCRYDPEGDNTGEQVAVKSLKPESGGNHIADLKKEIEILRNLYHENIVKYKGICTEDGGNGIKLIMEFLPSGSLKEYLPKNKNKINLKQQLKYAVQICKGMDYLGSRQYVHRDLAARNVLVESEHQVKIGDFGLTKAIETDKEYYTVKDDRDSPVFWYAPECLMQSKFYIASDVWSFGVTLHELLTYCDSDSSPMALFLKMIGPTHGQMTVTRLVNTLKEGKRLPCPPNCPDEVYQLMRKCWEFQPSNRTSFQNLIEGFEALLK
How it was run: (§1)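 Baculovirus-expressed human catalytic domains (GST-JAK1, GST-TYK2, His-JAK2, His-JAK3) phosphorylated 1 μM TK substrate-biotin at ATP Km (JAK1 7 μM, JAK2 4 μM, JAK3 2 μM, TYK2 13 μM) in pH 7.0 Hepes for 20-30 min at RT, 0.75% DMSO. EDTA stop, then overnight streptavidin-XL665/cryptate-antibody detection and HTRF read.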

[2] = target: T2, JAK2 (Homo sapiens, UniProt O60674); test: JAK2 kinase assay (HTRF, inhibition of phosphorylation of a synthetic peptide); conditions: catalytic domain, His-tag; 4 μM ATP (Km); read-out: JAK2 kinase inhibitory activity (EC50)
T2 construct: All four purified enzymes contain only the catalytic domain; His (N); purchased Carna Biosciences, Inc; host or cells: baculovirus expression system
T2 sequence (O60674 849-1124 limits assumed): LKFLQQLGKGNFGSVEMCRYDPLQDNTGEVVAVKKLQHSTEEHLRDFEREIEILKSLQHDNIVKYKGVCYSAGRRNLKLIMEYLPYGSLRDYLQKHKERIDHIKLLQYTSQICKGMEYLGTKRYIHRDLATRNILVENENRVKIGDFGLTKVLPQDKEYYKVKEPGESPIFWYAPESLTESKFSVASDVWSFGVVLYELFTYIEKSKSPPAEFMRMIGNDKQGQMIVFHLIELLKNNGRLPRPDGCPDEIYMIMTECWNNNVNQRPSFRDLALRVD
How it was run: as §1

[3] = target: T3, JAK3 (Homo sapiens, UniProt P52333); test: JAK3 kinase assay (HTRF, inhibition of phosphorylation of a synthetic peptide); conditions: catalytic domain, His-tag; 2 μM ATP (Km); read-out: JAK3 kinase inhibitory activity (EC50)
T3 construct: All four purified enzymes contain only the catalytic domain; His (N); purchased Carna Biosciences, Inc; host or cells: baculovirus expression system
T3 sequence (P52333 822-1111 limits assumed): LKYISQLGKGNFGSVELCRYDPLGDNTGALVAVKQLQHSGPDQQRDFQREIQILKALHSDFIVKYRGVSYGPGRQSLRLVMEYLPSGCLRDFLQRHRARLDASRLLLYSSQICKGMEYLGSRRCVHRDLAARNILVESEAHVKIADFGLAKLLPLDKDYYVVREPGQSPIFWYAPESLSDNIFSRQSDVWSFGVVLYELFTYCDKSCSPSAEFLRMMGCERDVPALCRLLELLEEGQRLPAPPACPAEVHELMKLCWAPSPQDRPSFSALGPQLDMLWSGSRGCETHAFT
How it was run: as §1

SMILES	EC50 [1] [nM]	EC50 [2] [nM]	EC50 [3] [nM]
Cc1ncoc1C(=O)N1CCN(c2ncnc3[nH]ccc23)CC2(CC2)C1 [Example 191, (4-methyloxazol-5-yl)-[5-(7H-pyrrolo[2,3-d]pyrimidin-4-yl)-5,8-diazaspiro[2.6]nonan-8-yl]methanone]	100 to 1000	100 to 1000	> 1000
O=C(Cc1ccc(Cl)cc1Cl)N1CCN(c2ncnc3[nH]ccc23)CC2(CC2)C1 [Example 270, 2-(2,4-dichlorophenyl)-1-[5-(7H-pyrrolo[2,3-d]pyrimidin-4-yl)-5,8-diazaspiro[2.6]nonan-8-yl]ethanone]	100 to 1000	< 100	100 to 1000
O=C(c1ccns1)N1CCN(c2ncnc3[nH]ccc23)CC2(CC2)C1 [Example 235, isothiazol-5-yl-[5-(7H-pyrrolo[2,3-d]pyrimidin-4-yl)-5,8-diazaspiro[2.6]nonan-8-yl]methanone]	100 to 1000	100 to 1000	100 to 1000
Cc1cnc(C(=O)N2CCCN(c3ncnc4[nH]ccc34)CC23CC3)cn1 [Example 197, (5-methylpyrazin-2-yl)-[5-(7H-pyrrolo[2,3-d]pyrimidin-4-yl)-5,9-diazaspiro[2.6]nonan-9-yl]methanone]	100 to 1000	100 to 1000	> 1000
O=C1CCC(=O)N1CC(=O)N1CCCN(c2ncnc3[nH]ccc23)CC12CC2 [Example 84, 1-[2-oxo-2-[5-(7H-pyrrolo[2,3-d]pyrimidin-4-yl)-5,9-diazaspiro[2.6]nonan-9-yl]ethyl]pyrrolidine-2,5-dione]	100 to 1000	100 to 1000	100 to 1000
N#CCN(CC#N)C(=O)N1CCN(c2ncnc3[nH]ccc23)CC2(CC2)C1 [Example 219, N,N-bis(cyanomethyl)-5-(7H-pyrrolo[2,3-d]pyrimidin-4-yl)-5,8-diazaspiro[2.6]nonane-8-carboxamide]	100 to 1000	< 100	100 to 1000
O=C(c1c[nH]cn1)N1CCCN(c2ncnc3[nH]ccc23)CC12CC2 [Example 134, 1H-imidazol-4-yl-[5-(7H-pyrrolo[2,3-d]pyrimidin-4-yl)-5,9-diazaspiro[2.6]nonan-9-yl]methanone]	100 to 1000	100 to 1000	100 to 1000
Cc1nc(C)c(CC(=O)N2CCCN(c3ncnc4[nH]ccc34)CC23CC3)s1 [Example 140, 2-(2,4-dimethylthiazol-5-yl)-1-[5-(7H-pyrrolo[2,3-d]pyrimidin-4-yl)-5,9-diazaspiro[2.6]nonan-9-yl]ethanone]	> 1000	> 1000	> 1000
Cc1nocc1C(=O)N1CCCN(c2ncnc3[nH]ccc23)CC12CC2 [Example 245, (3-methylisoxazol-4-yl)-[5-(7H-pyrrolo[2,3-d]pyrimidin-4-yl)-5,9-diazaspiro[2.6]nonan-9-yl]methanone]	> 1000	100 to 1000	> 1000
O=C(c1cscn1)N1CCN(c2ncnc3[nH]ccc23)CC2(CC2)C1 [Example 216, [5-(7H-pyrrolo[2,3-d]pyrimidin-4-yl)-5,8-diazaspiro[2.6]nonan-8-yl]-thiazol-4-yl-methanone]	100 to 1000	100 to 1000	100 to 1000
Cc1cc(C(=O)N2CCCN(c3ncnc4[nH]ccc34)CC23CC3)sn1 [Example 234, (3-methylisothiazol-5-yl)-[5-(7H-pyrrolo[2,3-d]pyrimidin-4-yl)-5,9-diazaspiro[2.6]nonan-9-yl]methanone]	> 1000	100 to 1000	> 1000
CN(CC#N)C(=O)N1CCN(c2ncnc3[nH]ccc23)CC2(CC2)C1 [Example 218, N-(cyanomethyl)-N-methyl-5-(7H-pyrrolo[2,3-d]pyrimidin-4-yl)-5,8-diazaspiro[2.6]nonane-8-carboxamide]	100 to 1000	< 100	100 to 1000
O=C(Cc1ccc(F)cc1)N1CCCN(c2ncnc3[nH]ccc23)CC12CC2 [Example 159, 2-(4-fluorophenyl)-1-[5-(7H-pyrrolo[2,3-d]pyrimidin-4-yl)-5,9-diazaspiro[2.6]nonan-9-yl]ethanone]	100 to 1000	< 100	> 1000
O=C(c1cccnc1)N1CCCN(c2ncnc3[nH]ccc23)CC12CC2 [Example 128, 3-pyridyl-[5-(7H-pyrrolo[2,3-d]pyrimidin-4-yl)-5,9-diazaspiro[2.6]nonan-9-yl]methanone]	100 to 1000	100 to 1000	> 1000
Cc1cc(C(=O)N2CCN(c3ncnc4[nH]ccc34)CC3(CC3)C2)ccn1 [Example 171, (2-methyl-4-pyridyl)-[5-(7H-pyrrolo[2,3-d]pyrimidin-4-yl)-5,8-diazaspiro[2.6]nonan-8-yl]methanone]	100 to 1000	> 1000	> 1000
O=C(c1cnco1)N1CCCN(c2ncnc3[nH]ccc23)CC12CC2 [Example 156, oxazol-5-yl-[5-(7H-pyrrolo[2,3-d]pyrimidin-4-yl)-5,9-diazaspiro[2.6]nonan-9-yl]methanone]	100 to 1000	100 to 1000	100 to 1000
CC(=O)Nc1ccc(CC(=O)N2CCN(c3ncnc4[nH]ccc34)CC3(CC3)C2)cc1 [Example 276]	100 to 1000	100 to 1000	> 1000
O=C(CN1C(=O)CSC1=O)N1CCN(c2ncnc3[nH]ccc23)CC2(CC2)C1 [Example 79, 3-[2-oxo-2-[5-(7H-pyrrolo[2,3-d]pyrimidin-4-yl)-5,8-diazaspiro[2.6]nonan-8-yl]ethyl]thiazolidine-2,4-dione]	< 100	< 100	< 100
O=C(Cc1nnn[nH]1)N1CCN(c2ncnc3[nH]ccc23)CC2(CC2)C1 [Example 215, 1-[5-(7H-pyrrolo[2,3-d]pyrimidin-4-yl)-5,8-diazaspiro[2.6]nonan-8-yl]-2-(1H-tetrazol-5-yl)ethanone]	< 100	< 100	100 to 1000
O=C(Cc1cnc[nH]1)N1CCN(c2ncnc3[nH]ccc23)CC2(CC2)C1 [Example 89, 2-(1H-imidazol-5-yl)-1-[5-(7H-pyrrolo[2,3-d]pyrimidin-4-yl)-5,8-diazaspiro[2.6]nonan-8-yl]ethanone]	100 to 1000	100 to 1000	100 to 1000
N#Cc1cccc(OCC(=O)N2CCN(c3ncnc4[nH]ccc34)CC3(CC3)C2)c1 [Example 118, 3-[2-oxo-2-[5-(7H-pyrrolo[2,3-d]pyrimidin-4-yl)-5,8-diazaspiro[2.6]nonan-8-yl]ethoxy]benzonitrile]	100 to 1000	< 100	100 to 1000
O=C(c1nc[nH]n1)N1CCCN(c2ncnc3[nH]ccc23)CC12CC2 [Example 228, [5-(7H-pyrrolo[2,3-d]pyrimidin-4-yl)-5,9-diazaspiro[2.6]nonan-9-yl]-(1H-1,2,4-triazol-3-yl)methanone]	100 to 1000	100 to 1000	> 1000
Cc1cc(C(=O)N2CCN(c3ncnc4[nH]ccc34)CC3(CC3)C2)sn1 [Example 233, (3-methylisothiazol-5-yl)-[5-(7H-pyrrolo[2,3-d]pyrimidin-4-yl)-5,8-diazaspiro[2.6]nonan-8-yl]methanone]	100 to 1000	100 to 1000	> 1000
